# Source: patent US8119681B2, “2-[1-phenyl-5-hydroxy or methoxy-4alpha-methyl-hexahydrocyclopenta [ƒ]indazole-5-YL]ethyl phenyl derivatives as glucocorticoid receptor ligands” (Merck Sharp & Dohme Corp., priority 2006, dated 2012)
# Where two headings read alike, the source gives them in different places.
# Target: T1, human GR (Homo sapiens, UniProt P04150)
# T1 sequence (P04150 1-777): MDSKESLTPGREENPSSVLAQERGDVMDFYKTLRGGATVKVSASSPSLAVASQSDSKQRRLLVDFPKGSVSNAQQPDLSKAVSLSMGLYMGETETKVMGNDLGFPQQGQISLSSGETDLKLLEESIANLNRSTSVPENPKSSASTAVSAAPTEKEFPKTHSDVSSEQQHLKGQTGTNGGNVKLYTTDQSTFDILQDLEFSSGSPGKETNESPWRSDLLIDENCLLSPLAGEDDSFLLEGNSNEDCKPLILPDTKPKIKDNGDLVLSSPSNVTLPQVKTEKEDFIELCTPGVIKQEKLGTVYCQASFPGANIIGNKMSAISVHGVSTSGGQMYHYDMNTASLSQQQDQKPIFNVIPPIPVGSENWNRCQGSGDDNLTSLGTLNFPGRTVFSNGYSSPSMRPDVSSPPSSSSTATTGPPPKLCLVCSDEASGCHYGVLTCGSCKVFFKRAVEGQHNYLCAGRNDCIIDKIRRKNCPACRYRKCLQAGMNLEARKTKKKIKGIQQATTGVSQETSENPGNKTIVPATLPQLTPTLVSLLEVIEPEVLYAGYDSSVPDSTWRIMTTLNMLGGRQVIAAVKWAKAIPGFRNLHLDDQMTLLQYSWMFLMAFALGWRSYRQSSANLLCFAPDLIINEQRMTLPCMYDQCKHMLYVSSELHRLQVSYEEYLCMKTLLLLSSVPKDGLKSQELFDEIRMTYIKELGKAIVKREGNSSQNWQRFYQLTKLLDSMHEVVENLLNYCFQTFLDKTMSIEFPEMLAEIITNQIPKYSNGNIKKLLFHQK
# Experiment: Transrepression Assay (GITAR), TNFα-β-lactamase reporter gene in U937 cells
# Format: cell-based
# Set-up: U937 cells contain an endogenous glucocorticoid receptor (GR); endogenous in cells; host or cells: U937 cells stably transfected with the TNF-α promoter/β-lactamase reporter only
# Conditions: for EC50: IP = inflection point, read-out: Transrepression U937 Cells GITAR IP; for GITAR > GRAMM % SEP: separation of GITAR Emax over GRAMMER Emax; for Emax: U-937
# In short: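 Reporter readout used CCF2-AM loading for 70–90 min at room temperature after overnight (~18 h, 37 °C) PMA (5 ng/ml final) and LPS (100 ng/ml final) stimulation of compound-treated (30–45 min) TNFα-β-lactamase U937 cells expressing native GR. Activity was normalised to 100 nM dexamethasone repression.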
# [1] = 100 nM dexamethasone = 100% activity, read-out: maximal activity in the transrepression assay
# [2] = Table 1, U937 cells, activity repressed by 100 nM dexamethasone = 100%, read-out: Transrepression U937 Cells GITAR Emax (%)
"EC50 (Table 1, U937 cells) [nM]",GITAR > GRAMM % SEP (Table 1) [%],Emax [1] [%],Emax [2] [%],SMILES
138,21,5 to 100,67,"C[C@]12Cc3cnn(-c4ccc(F)cc4)c3C=C1CC[C@@]2(O)CCc1cccc(Cl)c1CC(N)=O [Example 197, 2-(2-chloro-6-{2-[(4αS,5R)-1-(4-fluorophenyl)-5-hydroxy-4α-methyl-1,4,4α,5,6,7-hexahydrocyclopenta[f]indazol-5-yl]ethyl}phenyl)acetamide]"
77,32,5 to 100,68,"CCC(O)(C(N)=O)c1ccccc1CC[C@]1(O)CCC2=Cc3c(cnn3-c3ccc(F)cc3)C[C@@]21C (stereo partly drawn) [Example 199, 2-(2-{2-[(4αS,5R)-1-(4-fluorophenyl)-5-hydroxy-4α-methyl-1,4,4α,5,6,7-hexahydrocyclopenta[f]indazol-5-yl]ethyl}phenyl)-2-hydroxybutanamide]"
40,38,5 to 100,78,"CC(C)C(O)(C(N)=O)c1ccccc1CC[C@]1(O)CCC2=Cc3c(cnn3-c3ccc(F)cc3)C[C@@]21C (stereo partly drawn) [Example 201, 2-(2-{2-[(4αS,5R)-1-(4-fluorophenyl)-5-hydroxy-4α-methyl-1,4,4α,5,6,7-hexahydrocyclopenta[f]indazol-5-yl]ethyl}phenyl)-2-hydroxy-3-methylbutanamide]"
